Test results taken from ChEMBL document CHEMBL1122023, “Potential antitumor agents. 36. Quantitative relationships between experimental antitumor activity, toxicity, and structure for the general class of 9-anilinoacridine antitumor agents” (J Med Chem, 1982).

Assay: physchem
Description: Ionization constant (pKa)

Structure (SMILES)	pKa
CN(C)c1ccc2nc3ccccc3c(Nc3ccc(NS(C)(=O)=O)cc3)c2c1	7.27
COc1cc(NS(C)(=O)=O)ccc1N=c1c2ccccc2[nH]c2ccc(C(C)(C)C)cc12	7.38
COc1cc(NS(C)(=O)=O)ccc1Nc1c2ccccc2nc2c(C)c(Cl)ccc12	6.71
COc1cc(NS(C)(=O)=O)ccc1Nc1c2ccc(C)cc2nc2c(C)cccc12	7.67
COc1ccccc1Nc1c2ccccc2nc2ccc(C(C)C)c(NS(C)(=O)=O)c12	7.4
COc1cc(NS(C)(=O)=O)ccc1Nc1c2ccccc2nc2cc(C(C)(C)C)ccc12	7.64
CCCOc1cccc2c(Nc3ccc(NS(C)(=O)=O)cc3OC)c3ccccc3nc12	7.36
O=[N+]([O-])c1ccc2nc3ccccc3c(Nc3ccccc3)c2c1	6.26
COc1cc(NS(C)(=O)=O)ccc1Nc1c2ccccc2nc2cc(CCC(N)=O)ccc12	7.5
COc1cc(NS(C)(=O)=O)ccc1Nc1c2ccc([N+](=O)[O-])cc2nc2cc([N+](=O)[O-])ccc12	3.82
Cc1cc(NS(C)(=O)=O)ccc1Nc1c2ccccc2nc2c(C)cccc12	7.39
COc1cc(NS(C)(=O)=O)ccc1Nc1c2ccccc2nc2c(OCC(O)CO)cccc12 (stereo in doubt; 303)	7
COc1cc(NS(C)(=O)=O)ccc1Nc1c2ccccc2nc2ccncc12	5.94
COc1cc(NS(=O)(=O)OC)ccc1Nc1c2ccccc2nc2c(CCC(N)=O)cccc12	7.15
COc1ccc2[nH]c3ccccc3c(=Nc3ccc(NS(C)(=O)=O)cc3OC)c2c1	7.1
COc1cc(NS(C)(=O)=O)ccc1Nc1c2ccccc2nc2ccc(Cl)cc12	6.69
CN(C)/N=N/c1ccc2c(Nc3ccc(NS(C)(=O)=O)cc3)c3ccccc3nc2c1	7.13
COc1cc(NS(C)(=O)=O)ccc1Nc1c2cccc(OC)c2nc2c(OC)cccc12	6.9
CCc1cccc2c(Nc3ccc(NS(C)(=O)=O)cc3)c3ccccc3nc12	7.14
CNc1ccc2c(Nc3ccc(NS(C)(=O)=O)cc3OC)c3ccccc3nc2c1	9.5
CCCCOc1cccc2c(Nc3ccc(NS(C)(=O)=O)cc3OC)c3ccccc3nc12	7.34

Structure (SMILES)	pKa
COc1cc(NS(C)(=O)=O)ccc1Nc1c2ccccc2nc2cc(S(C)(=O)=O)ccc12	5.87
COc1cc(NS(C)(=O)=O)ccc1Nc1c2ccccc2nc2c(C(=O)NCCO)cccc12	6.34
COc1cc(NS(C)(=O)=O)ccc1Nc1c2cccc(C)c2nc2c(C)cccc12	6.91
CS(=O)(=O)Nc1ccc(Nc2c3ccc(Cl)cc3nc3ccc(N)cc23)cc1	6.56
COc1cc(NS(C)(=O)=O)ccc1Nc1c2ccc(Cl)cc2nc2cc(Cl)ccc12	6.18
COc1cc(NS(C)(=O)=O)ccc1Nc1c2ccc(C)cc2nc2cc([N+](=O)[O-])ccc12	6.03
COc1ccc2c(Nc3ccc(NS(C)(=O)=O)cc3)c3ccc(Cl)cc3nc2c1	6.91
COc1cc(NS(C)(=O)=O)ccc1Nc1c2ccc(Cl)cc2nc2c(OC)cccc12	6.79
COc1cc(NS(C)(=O)=O)ccc1Nc1c2ccccc2nc2cc(N=[N+]=[N-])ccc12	7.26
COc1cc(NS(C)(=O)=O)ccc1Nc1c2ccc(I)cc2nc2c(OCC(O)CO)cccc12 (stereo not drawn)	6.7
COc1cc(NS(C)(=O)=O)ccc1N=c1c2ccccc2[nH]c2ccc(C(N)=O)cc12	6.59
COc1cc(NS(C)(=O)=O)ccc1Nc1c2ccc(Br)cc2nc2cc(Br)ccc12	6.17
COc1ccc2nc3cc(Cl)ccc3c(Nc3ccc(NS(C)(=O)=O)cc3OC)c2c1	6.52
COc1cc(NS(C)(=O)=O)ccc1Nc1c2ccccc2nc2c(OC3OC(CO)C(O)C(O)C3NC(C)=O)cccc12 (stereo not drawn)	6.35
COc1cc(NS(C)(=O)=O)ccc1Nc1c2ccccc2nc2cc(C(F)(F)F)c(N)cc12	6.56
Cc1ccc2c(Nc3ccc(NS(C)(=O)=O)cc3)c3ccc([N+](=O)[O-])cc3nc2c1	5.81
COc1cc(NS(C)(=O)=O)ccc1Nc1c2ccccc2nc2cccc(C)c12	6.71
COc1cc(NS(C)(=O)=O)ccc1Nc1c2ccc(I)cc2nc2ccc(N)cc12	6.72
COS(=O)(=O)Nc1ccc(Nc2c3ccccc3nc3cc(Cl)ccc23)cc1	6.57
CS(=O)(=O)Nc1ccc(Nc2c3ccccc3nc3cc(Cl)c(N)cc23)cc1	6.71
CC(=O)Nc1ccc2c(Nc3ccc(NS(C)(=O)=O)cc3)c3ccc(NC(C)=O)cc3nc2c1	7.55

Structure (SMILES)	pKa
COc1cc(NS(C)(=O)=O)ccc1Nc1c2ccc([N+](=O)[O-])cc2nc2c(OC)cccc12	5.68
COc1cc(NS(C)(=O)=O)ccc1Nc1c2ccccc2nc2cccc([N+](=O)[O-])c12	4.98
CS(=O)(=O)Nc1ccc(Nc2c3ccccc3nc3ccccc23)cc1[N+](=O)[O-]	5.42
CS(=O)(=O)Nc1ccc(Nc2c3ccccc3nc3cc(F)ccc23)cc1	6.77
Cc1cc(NS(C)(=O)=O)ccc1Nc1c2ccccc2nc2ccccc12	7.36
CS(=O)(=O)Nc1ccc(NS(C)(=O)=O)c(Nc2c3ccccc3nc3ccccc23)c1	6.02
COc1cc(NS(C)(=O)=O)ccc1Nc1c2ccccc2nc2cccnc12	7.19
COc1cc(NS(C)(=O)=O)ccc1Nc1c2ccccc2nc2cc(Br)c(N)cc12	7.01
CCc1ccc2nc3ccccc3c(Nc3ccc(NS(C)(=O)=O)cc3OC)c2c1	7.46
CCCC(=O)Nc1ccc2c(Nc3ccc(NS(C)(=O)=O)cc3)c3ccccc3nc2c1	7.37
CS(=O)(=O)Nc1ccc(Nc2c3ccccc3nc3c(CO)cccc23)cc1	6.68
COc1cc(NS(C)(=O)=O)ccc1Nc1c2ccccc2nc2cc(N)ccc12	7.36
COc1cc(NS(C)(=O)=O)ccc1Nc1c2ccccc2nc2cc(NC(C)=O)ccc12	7.77
COc1cc(NS(C)(=O)=O)ccc1Nc1c2ccc(N=[N+]=[N-])cc2nc2c(C)cccc12	7.22
CCC(=O)Nc1ccc2c(Nc3ccc(NS(C)(=O)=O)cc3)c3ccccc3nc2c1	7.35
COc1cc(NS(C)(=O)=O)ccc1Nc1c2ccccc2nc2c(C)c(C)ccc12	7.65
CCCNc1ccc(Nc2c3ccccc3nc3ccccc23)cc1	8.24
Cc1ccc2c(Nc3ccc(NS(C)(=O)=O)cc3)c3cccc(C)c3nc2c1	7.46
COc1cc(NS(C)(=O)=O)ccc1Nc1c2ccc(I)cc2nc2c(OC)cccc12	6.74
COc1cc(NS(C)(=O)=O)ccc1Nc1c2ccc(N)cc2nc2c(C)cccc12	9.88
COc1cc(NS(C)(=O)=O)ccc1Nc1c2ccccc2nc2ccc([N+](=O)[O-])cc12	5.63
